Experiments:
[1] = biological target: T1, beta-3 adrenoceptor (Rattus norvegicus, UniProt P26255); test: EC90 determination: inhibition of EFS-induced contraction in rat isolated bladder (pilot CCRC); assay type: cell-based; settings: pilot concentration response curves, read-out: EC90 concentration to inhibit EFS-induced contraction
T1 construct: The bladder longitudinal smooth muscle, with the urothelium still attached were mounted in 25 mL organ baths; from tissue; host or cells: rat urinary bladder smooth muscle strips (Male CD rats)
Protocol: Macroscopically normal bladders obtained from Male CD rats (220-250 g) were used. […] Each bladder was cleaned free of surrounding connective tissue and halved longitudinally. The bladder longitudinal smooth muscle, with the urothelium still attached were mounted in 25 mL organ baths containing physiological saline solution (PSS) (composition: 119.0 mM NaCl, 4.7 mM KCl, 1.2 mM MgSO4, 24.9 mM NaHCO3, 1.2 mM KH2PO4, 2.5 mM CaCl2 and 11.1 mM glucose) supplemented with 1 μM prazosin (α1-adrenoceptor antagonist) and 30 nM ICI118551 (β2-adrenoceptor antagonist), aerated with 95% O2/5% CO2 gas mix, warmed and maintained at approximately 37° C. throughout the experiment. Changes in force production were recorded using transducers. […]
In initial experiments the parameters for the EFS were assessed by performing a frequency curve to determine a frequency that would give a response that was approximately 80% of the response seen to 80 mM KCl. Optimal EFS parameters were determined to be: 30 Volts, square pulse of 0.1 ms, train of 4 seconds every 120 seconds, 15 Hz. […]
Pilot studies to determine EC90 concentrations of the test compounds were performed. […] From the data obtained in these experiments, EC90 concentrations of the test compounds were determined for use in subsequent experiments. […]

[2] = biological target: T1, beta-3 adrenoceptor; test: Receptor desensitization/washout: CCRC after incubation with EC90 concentration and PSS washout, rat bladder strips; assay type: cell-based
Protocol: Macroscopically normal bladders obtained from Male CD rats (220-250 g) were used. […] Each bladder was cleaned free of surrounding connective tissue and halved longitudinally. The bladder longitudinal smooth muscle, with the urothelium still attached were mounted in 25 mL organ baths containing physiological saline solution (PSS) (composition: 119.0 mM NaCl, 4.7 mM KCl, 1.2 mM MgSO4, 24.9 mM NaHCO3, 1.2 mM KH2PO4, 2.5 mM CaCl2 and 11.1 mM glucose) supplemented with 1 μM prazosin (α1-adrenoceptor antagonist) and 30 nM ICI118551 (β2-adrenoceptor antagonist), aerated with 95% O2/5% CO2 gas mix, warmed and maintained at approximately 37° C. throughout the experiment. Changes in force production were recorded using transducers. After mounting, the bladder halves were allowed to equilibrate for at least 30 min before they were set to a stable tension of approximately 1.0 g. The tissue was then allowed to equilibrate over at least a 60 min period with washes every 15 min.
In initial experiments the parameters for the EFS were assessed by performing a frequency curve to determine a frequency that would give a response that was approximately 80% of the response seen to 80 mM KCl. Optimal EFS parameters were determined to be: 30 Volts, square pulse of 0.1 ms, train of 4 seconds every 120 seconds, 15 Hz. This frequency was then used to stimulate the tissue for all subsequent experiments. The viability of bladder strips was tested by stimulating the tissue with EFS for minimum of ten minutes.
Following compound incubation, the tissues were washed with PSS for a period of 1, 3 or 6 hr, with washes approximately every 15 min, to remove the drug. At the end of the final wash period the tissues were stimulated with EFS, and left to equilibrate for at least 30 min. A CCRC was then performed in each tissue. Tissue responses were calculated as the mean (SEM) and expressed as percentage of EFS induced tone.
Tissues were incubated with the EC90 concentration of the test compounds for one hr followed by one hr, three hr or six hr of washing with PSS. […] This EFS-induced potentiation of bladder contraction from baseline was not observed with solabegron. […] Effect of the washout period following a […] incubation with test compound.
In the next series of experiments, tissues were incubated with the EC90 concentration of the test compounds for three hr followed by either one hr, three hr or six hr of washing with PSS.

[3] = biological target: T2, beta-3 adrenoceptor (Homo sapiens, UniProt P13945); test: Desensitization and resensitization in isolated human bladder tissue strips (EFS responses); assay type: cell-based; design: dose or concentration left out as unconfirmed
T2 construct: from tissue; host or cells: human urinary bladder muscle strips
Protocol: Beta-3 adrenoceptor desensitization and resensitization were examined in the human bladder. Similar to the protocol used in the rat bladder, isolated human bladder tissue strips were studied for EFS responses. Optimal EFS parameters were determined to be: 30 volts, square pulse of 0.1 ms, train of 5 seconds every 60 seconds, 8-10 Hz. […] Following compound incubation, the tissues were washed with PSS for a period of 1 or 3 hr, with washes approximately every 15 min, to remove the drug. At the end of the final wash period the tissues were stimulated with EFS, and left to equilibrate for at least 30 min. A concentration-response curve was then performed in each tissue.

[4] = Solubility of solabegron; assay type: physicochemical
[5] = system: overactive bladder; settings: women with moderate to severe OAB; cited from earlier work
[6] = three hr incubation with EC90, one hr of washing

T1 sequence (P26255 whole entry): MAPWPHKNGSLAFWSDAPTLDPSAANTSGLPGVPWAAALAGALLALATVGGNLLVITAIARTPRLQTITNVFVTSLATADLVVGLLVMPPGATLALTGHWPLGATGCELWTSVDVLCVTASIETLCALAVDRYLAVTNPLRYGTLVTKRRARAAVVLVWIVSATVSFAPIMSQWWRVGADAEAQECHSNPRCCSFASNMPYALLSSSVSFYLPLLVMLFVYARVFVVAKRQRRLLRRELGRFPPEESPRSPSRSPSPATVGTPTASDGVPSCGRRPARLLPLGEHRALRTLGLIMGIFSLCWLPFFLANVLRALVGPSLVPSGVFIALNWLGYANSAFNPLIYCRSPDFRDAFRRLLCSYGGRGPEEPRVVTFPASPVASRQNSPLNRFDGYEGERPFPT
T2 sequence (P13945 whole entry): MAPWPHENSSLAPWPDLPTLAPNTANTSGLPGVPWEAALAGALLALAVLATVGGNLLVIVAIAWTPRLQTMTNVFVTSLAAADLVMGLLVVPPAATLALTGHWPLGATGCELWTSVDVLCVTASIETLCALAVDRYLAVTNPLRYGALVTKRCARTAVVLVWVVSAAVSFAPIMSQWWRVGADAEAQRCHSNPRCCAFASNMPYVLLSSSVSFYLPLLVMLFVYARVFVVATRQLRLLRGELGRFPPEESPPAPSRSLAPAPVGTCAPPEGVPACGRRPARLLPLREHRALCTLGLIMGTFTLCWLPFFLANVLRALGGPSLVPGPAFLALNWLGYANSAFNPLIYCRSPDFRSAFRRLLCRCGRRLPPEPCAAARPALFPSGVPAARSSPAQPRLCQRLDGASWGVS

SMILES | EC90 [1] | response (reduction of EFS-induced tone) after pre-exposure [2, 6] | response (reduction of EFS-induced tone) after pre-exposure ([2]; one hr incubation with EC90, one hr of washing with PSS, vs vehicle incubation) | response (reduction of EFS-induced tone) after pre-exposure ([2]; one hr incubation with EC90, three hr of washing, responses to higher concentrations) | response (reduction of EFS-induced tone) after pre-exposure ([2]; three hr incubation with EC90, three hr of washing, responses to the highest concentrations) | inhibition of EFS-induced bladder smooth muscle contraction [3] | solubility [4] | safety and tolerability, adverse events as compared to placebo [5] | symptoms of overactive bladder [5]
C[C@H](Cc1ccc2c(c1)OC(C(=O)[O-])(C(=O)[O-])O2)NC[C@H](O)c1cccc(Cl)c1.[Na+].[Na+] [CL-316,243, reference compound] | 42 nM | significantly attenuated | – | – | – | – | – | – | –
O=C(O)c1cccc(-c2cccc(NCCNC[C@H](O)c3cccc(Cl)c3)c2)c1 [Solabegron, 3′-[(2-{[(2R)-2-(3-chlorophenyl)-2-hydroxyethyl]amino}ethyl)amino]biphenyl-3-carboxylic acid] | – | significantly attenuated | significantly attenuated | significantly attenuated | significantly attenuated | concentration-dependent inhibition | pH dependent and low solubility | safe, well-tolerated, and does not demonstrate significant differences in adverse events as compared to placebo | significantly reduce the symptoms of overactive bladder
